pKi: −log10 of the molar value.
Tests used:
[1] = target: Delta-type opioid receptor (Rattus norvegicus, UniProt P33533); experiment: Binding activity against Opioid receptor delta 1 using [3H]DADLE as radioligand in rat brain membranes.; format: cell membranes
[2] = target: Mu-type opioid receptor (Cavia porcellus, UniProt P97266); experiment: Inhibition of [35S]GTP-gamma-S, binding in guinea pig caudate stimulated by DAMGO (Opioid receptor mu 1); format: functional
[3] = target: T1, Kappa-type opioid receptor (Cavia porcellus, UniProt P41144); experiment: Inhibition of [35S]GTP-gamma-S, binding in guinea pig caudate stimulated by U69,593 in Opioid receptor kappa 1; format: functional
[4] = target: T1, Kappa-type opioid receptor; experiment: Binding activity against kOpioid receptor kappa 1 using [3H]U-69593 as radioligand in guinea pig membranes.; format: cell membranes
[5] = target: Mu-type opioid receptor (Rattus norvegicus, UniProt P33535); experiment: Binding activity against Opioid receptor mu 1 using [3H]DAMGO as radioligand in rat brain membranes.; format: cell membranes
[6] = target: T1, Kappa-type opioid receptor; experiment: Binding activity against Opioid receptor kappa 1 using [3H]U-69593 as radioligand in guinea pig membranes.; format: cell membranes
[7] = target: Kappa-type opioid receptor (Homo sapiens, UniProt P41145); experiment: Binding affinity against Opioid receptor kappa 1 using [3H]ethylketocyclazocine as radioligand.
[8] = target: Mu-type opioid receptor (Homo sapiens, UniProt P35372); experiment: Binding affinity against Opioid receptor mu 1 using [3H]naloxone as radioligand.
Chain of Mu-type opioid receptor (Homo sapiens, UniProt P35372) (P35372 whole entry): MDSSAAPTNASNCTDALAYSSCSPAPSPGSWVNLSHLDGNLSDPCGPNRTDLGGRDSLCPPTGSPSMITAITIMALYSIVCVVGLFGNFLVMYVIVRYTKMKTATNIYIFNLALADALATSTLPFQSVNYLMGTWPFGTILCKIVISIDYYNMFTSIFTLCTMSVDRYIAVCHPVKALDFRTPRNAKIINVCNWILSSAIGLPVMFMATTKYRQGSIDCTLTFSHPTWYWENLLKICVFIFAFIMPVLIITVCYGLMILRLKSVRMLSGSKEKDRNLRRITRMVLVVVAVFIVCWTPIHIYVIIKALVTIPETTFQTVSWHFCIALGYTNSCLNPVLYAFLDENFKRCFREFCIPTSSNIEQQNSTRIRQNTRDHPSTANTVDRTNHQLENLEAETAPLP

T1 sequence (P41144 whole entry): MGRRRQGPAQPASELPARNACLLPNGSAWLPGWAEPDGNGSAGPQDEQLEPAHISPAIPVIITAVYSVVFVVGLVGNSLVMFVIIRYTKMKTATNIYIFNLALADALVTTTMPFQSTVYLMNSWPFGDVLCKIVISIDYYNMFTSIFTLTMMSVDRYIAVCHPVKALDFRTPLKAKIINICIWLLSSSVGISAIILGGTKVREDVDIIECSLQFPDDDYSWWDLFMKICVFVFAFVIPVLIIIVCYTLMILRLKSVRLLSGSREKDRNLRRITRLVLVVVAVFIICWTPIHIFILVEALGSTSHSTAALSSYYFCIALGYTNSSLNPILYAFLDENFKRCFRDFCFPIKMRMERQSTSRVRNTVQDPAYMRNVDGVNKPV
Chain of Mu-type opioid receptor (Cavia porcellus, UniProt P97266) (P97266 whole entry): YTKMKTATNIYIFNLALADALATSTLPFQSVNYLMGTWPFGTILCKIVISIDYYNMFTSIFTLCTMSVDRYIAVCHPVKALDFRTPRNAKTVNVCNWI
Chain of Mu-type opioid receptor (Rattus norvegicus, UniProt P33535) (P33535 whole entry): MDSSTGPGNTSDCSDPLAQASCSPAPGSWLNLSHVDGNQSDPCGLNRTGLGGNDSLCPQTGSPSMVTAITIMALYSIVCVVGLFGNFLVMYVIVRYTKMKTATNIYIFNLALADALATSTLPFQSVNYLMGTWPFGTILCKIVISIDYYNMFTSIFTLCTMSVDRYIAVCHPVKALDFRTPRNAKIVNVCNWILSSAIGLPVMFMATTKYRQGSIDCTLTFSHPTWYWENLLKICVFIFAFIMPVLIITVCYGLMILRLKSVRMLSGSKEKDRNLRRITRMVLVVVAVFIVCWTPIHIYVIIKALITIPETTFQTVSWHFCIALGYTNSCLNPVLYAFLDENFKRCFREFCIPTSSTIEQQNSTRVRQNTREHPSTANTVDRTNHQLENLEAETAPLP
Chain of Delta-type opioid receptor (P33533 whole entry): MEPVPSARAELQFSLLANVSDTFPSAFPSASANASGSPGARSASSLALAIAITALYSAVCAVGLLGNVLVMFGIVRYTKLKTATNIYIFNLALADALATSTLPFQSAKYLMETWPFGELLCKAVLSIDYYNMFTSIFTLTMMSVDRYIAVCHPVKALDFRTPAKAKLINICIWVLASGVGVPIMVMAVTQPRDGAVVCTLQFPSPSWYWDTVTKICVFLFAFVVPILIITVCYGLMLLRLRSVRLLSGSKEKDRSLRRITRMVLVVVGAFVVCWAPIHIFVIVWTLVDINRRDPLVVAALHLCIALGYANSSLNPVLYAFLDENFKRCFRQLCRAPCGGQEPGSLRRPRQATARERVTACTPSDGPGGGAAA
Chain of Kappa-type opioid receptor (Homo sapiens, UniProt P41145) (P41145 whole entry): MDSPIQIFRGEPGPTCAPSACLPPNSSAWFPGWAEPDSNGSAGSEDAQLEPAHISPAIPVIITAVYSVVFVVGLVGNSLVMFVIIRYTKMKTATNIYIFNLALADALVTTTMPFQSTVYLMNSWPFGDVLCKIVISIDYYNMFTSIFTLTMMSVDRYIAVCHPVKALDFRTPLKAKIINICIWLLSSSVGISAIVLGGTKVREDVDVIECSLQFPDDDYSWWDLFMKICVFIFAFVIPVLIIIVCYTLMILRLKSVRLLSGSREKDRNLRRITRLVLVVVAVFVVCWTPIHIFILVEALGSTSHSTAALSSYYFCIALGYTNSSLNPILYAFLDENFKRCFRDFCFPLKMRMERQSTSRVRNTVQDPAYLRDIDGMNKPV

Row | Compound | pKi [1] | pKi [2] | pKi [3] | pKi [4] | pKi [5] | pKi [6] | pKi [7] | pKi [8]
1 | C[C@H]1C2CCCC1(c1cccc(O)c1)CCN2CCc1ccccc1 (some centres not stated) | 6.57 | 9.47 | 8.87 | 7.84 | 8.51 | – | – | –
2 | C[C@H]1C2CCCC1(c1cccc(O)c1)CCN2C (some centres not stated) | < 5.00 | 7.67 | 6.98 | – | 6.78 | 6.09 | – | –
3 | C[C@H]1CN(C)CC[C@@]1(C)c1cccc(O)c1 | – | – | – | – | – | – | 6.08 | 7.10
